In patent US9650339B2, “Inhibitors of histone demethylases” (Gilead Sciences, Inc., priority 2013, dated 2017):
One block for each compound: values may come before it.

Columns and labels:
[1] = tested on: OVCAR-3; experiment: Cell proliferation assay OVCAR-3; assay type: cell-based; details: Homo sapiens; OVCAR-3, Ovary; method of Example 5
Procedure: MCF7 cells were seeded in multi well plates at a density optimized to give approximately 90% confluent cells at the time of harvest. Cells were incubated for 24 hours before addition of compound. Compounds were diluted in complete medium and added to the plates in duplicates. The final concentration of DMSO was maximum 0.5%. Complete medium used was DMEM with GlutaMAX containing 10% FBS and pen/strep.
120 hours after addition of compounds, the plates were harvested and analyzed by ATPlite 1 Step (Perkin Elmer, cat no 6016739) according to the manufactures recommendation.
The assays were performed by the method of Example 5 by seeding the relevant cell line at a density optimized to give approximately 90% confluent cells at the time of harvest.

[2] = tested on: OPM-2 subcutaneous mouse xenograft model of multiple myeloma; experiment: Inhibition of tumor growth in mouse xenograft model; assay type: in vivo, NOD/SCID mice (Mus Musculus)
Description: Briefly, NOD/SCID mice γ-irradiated with ^60Co (200 rad) (12 animals/group) were inoculated subcutaneously with 8×10^6 OPM-2 cells assisted with Matrigel. Dosing according to the table below started when tumors reached an average size of ˜100 mm^3 (day 15). Dosing continued until the average size of tumors in the vehicle group reached ˜2000 mm^3 (day 31).
Animals were 7 weeks old female NOD/SCID mice (Mus Musculus), supplied by Beijing HFK Bio-Technology Co. Ltd. (Beijing, china). Body weight was approx. 16-23 g. Before commencement of treatment, all animals were weighed and tumor volumes were measured, and mice were assigned into groups using randomized block design based upon their tumor volumes.
OPM-2 tumor cells were maintained in vitro in RPMI1640 medium supplemented with 20% fetal bovine serum at 37° C. in an atmosphere of 5% CO2 in air. The tumor cells were routinely subcultured twice weekly. The cells growing in an exponential growth phase were harvested and counted for tumor inoculation.
Tumor sizes were measured three times weekly in two dimensions using a caliper, and the volume was expressed in mm^3 using the formula: V=0.5 a×b^2 where a and b were the long and short diameters of the tumor, respectively.

EC50 [1]: > 2500 nM
SMILES: CCN(CCN(C)C)C(=O)CNCc1cc(CNC(=O)C(F)(F)F)ccn1 [Compound 25, N-[(2-{[({[2-(dimethylamino)ethyl]-(ethyl)carbamoyl}-methyl)amino]methyl}-pyrtdin-4-yl)methyl]-2,2,2-trifluoroacetamide]

SMILES: CCN(CC)CCCCNCc1cc(/C=N/CCO)ccn1 [Compound 61, 2-[{[2-({[4-(diethylamino)-butyl]amino}-methyl)pyridin-4-yl]methylidene}-amino]ethan-1-ol]
Tumor Volume ([2]; BID × 14 i.p. 1 mg/kg, day 15 after inoculation (start of dosing)): 101 ± 12 mm^3
Tumor Volume ([2]; BID × 14 i.p. 1 mg/kg, day 17 after inoculation): 249 ± 32 mm^3
Tumor Volume ([2]; BID × 14 i.p. 1 mg/kg, day 19 after inoculation): 320 ± 45 mm^3
Tumor Volume ([2]; BID × 14 i.p. 1 mg/kg, day 21 after inoculation): 577 ± 85 mm^3
Tumor Volume ([2]; BID × 14 i.p. 1 mg/kg, day 24 after inoculation): 951 ± 124 mm^3
Tumor Volume ([2]; BID × 14 i.p. 1 mg/kg, day 26 after inoculation): 1259 ± 169 mm^3
Tumor Volume ([2]; BID × 14 i.p. 1 mg/kg, day 28 after inoculation): 1800 ± 202 mm^3
Tumor Volume ([2]; BID × 14 i.p. 1 mg/kg, day 31 after inoculation): 2864 ± 334 mm^3
Tumor Volume ([2]; BID × 14 i.p. 10 mg/kg, day 15 after inoculation (start of dosing)): 101 ± 11 mm^3
Tumor Volume ([2]; BID × 14 i.p. 10 mg/kg, day 17 after inoculation): 198 ± 28 mm^3
Tumor Volume ([2]; BID × 14 i.p. 10 mg/kg, day 19 after inoculation): 276 ± 44 mm^3
Tumor Volume ([2]; BID × 14 i.p. 10 mg/kg, day 21 after inoculation): 519 ± 67 mm^3
Tumor Volume ([2]; BID × 14 i.p. 10 mg/kg, day 24 after inoculation): 694 ± 92 mm^3
Tumor Volume ([2]; BID × 14 i.p. 10 mg/kg, day 26 after inoculation): 928 ± 136 mm^3
Tumor Volume ([2]; BID × 14 i.p. 10 mg/kg, day 28 after inoculation): 1289 ± 178 mm^3
Tumor Volume ([2]; BID × 14 i.p. 10 mg/kg, day 31 after inoculation): 1996 ± 302 mm^3
Tumor Volume ([2]; BID × 14 i.p. 20 mg/kg, day 15 after inoculation (start of dosing)): 101 ± 12 mm^3
Tumor Volume ([2]; BID × 14 i.p. 20 mg/kg, day 17 after inoculation): 188 ± 25 mm^3
Tumor Volume ([2]; BID × 14 i.p. 20 mg/kg, day 19 after inoculation): 292 ± 50 mm^3
Tumor Volume ([2]; BID × 14 i.p. 20 mg/kg, day 21 after inoculation): 440 ± 77 mm^3
Tumor Volume ([2]; BID × 14 i.p. 20 mg/kg, day 24 after inoculation): 766 ± 143 mm^3
Tumor Volume ([2]; BID × 14 i.p. 20 mg/kg, day 26 after inoculation): 1029 ± 196 mm^3
Tumor Volume ([2]; BID × 14 i.p. 20 mg/kg, day 28 after inoculation): 1298 ± 236 mm^3
Tumor Volume ([2]; BID × 14 i.p. 20 mg/kg, day 31 after inoculation): 1573 ± 261 mm^3
